Test results from ChEMBL document CHEMBL1123223, “New effective gonadotropin releasing hormone antagonists with minimal potency for histamine release in vitro” (J Med Chem, 1986).
Values after ≈ are worked out from the molar mass of the structure shown.

Assays:
Rattus norvegicus [1] = species: Rattus norvegicus; assay: GnRH antagonistic dose of compound for 9 rats ovulation out of total 20 using anti-ovulatory assay; assay type: functional
Rattus norvegicus [2] = species: Rattus norvegicus; assay: Compound was tested in vitro for its ability to inhibit histamine release from rat mast cells.; assay type: functional; conditions: read-out: ED50 (the source's name)
[3] = target: T1, Gonadotropin-releasing hormone receptor (Rattus norvegicus) (UniProt P30969); assay: Inhibition of GnRH-mediated LH secretion by cultured pituitary cells; assay type: functional, cell-based; conditions: Pituitary gland cell
T1 sequence (whole entry): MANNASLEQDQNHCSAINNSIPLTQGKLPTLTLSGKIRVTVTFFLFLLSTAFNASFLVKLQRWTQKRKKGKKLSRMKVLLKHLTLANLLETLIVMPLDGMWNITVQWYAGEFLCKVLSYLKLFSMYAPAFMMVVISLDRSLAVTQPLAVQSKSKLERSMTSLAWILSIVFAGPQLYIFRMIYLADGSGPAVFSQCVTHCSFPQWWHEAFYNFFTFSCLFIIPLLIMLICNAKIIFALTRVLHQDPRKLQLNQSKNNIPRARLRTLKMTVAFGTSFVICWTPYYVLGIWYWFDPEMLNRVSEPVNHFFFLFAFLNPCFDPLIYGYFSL

Rattus norvegicus [4] = species: Rattus norvegicus; assay: Dissociation constant was determined in rat pituitary cells.; assay type: cell-based; conditions: pituitary gland cell
Rattus norvegicus [5] = species: Rattus norvegicus; assay: Compound was evaluated for time course of action on LH secretion in the castrated male rat at a time interval of 19 hr at 125 microg; assay type: functional
Rattus norvegicus [6] = species: Rattus norvegicus; assay: Compound was evaluated for time course of action on LH secretion in the castrated male rat at a time interval of 43 hr at 125 microg; assay type: functional
Rattus norvegicus [7] = species: Rattus norvegicus; assay: Compound was evaluated for time course of action on LH secretion in the castrated male rat at a time interval of 73 hr at 125 microg; assay type: functional
Rattus norvegicus [8] = species: Rattus norvegicus; assay: Compound was evaluated for time course of action on LH secretion in the castrated male rat at a time interval of 0 hr at 125 microg; assay type: functional
Rattus norvegicus [9] = species: Rattus norvegicus; assay: Compound was evaluated for time course of action on LH secretion in the castrated male rat at a time interval of 49 hr at 125 microg; assay type: functional
Rattus norvegicus [10] = species: Rattus norvegicus; assay: GnRH antagonistic dose of compound for 8 rats ovulation out of total 16 using anti-ovulatory assay in experiment 1; assay type: functional
Rattus norvegicus [11] = species: Rattus norvegicus; assay: Compound was evaluated for time course of action on LH secretion in the castrated male rat at a time interval of 1 hr at 125 microg; assay type: functional
Rattus norvegicus [12] = species: Rattus norvegicus; assay: Compound was evaluated for time course of action on LH secretion in the castrated male rat at a time interval of 67 hr at 125 microg; assay type: functional
Rattus norvegicus [13] = species: Rattus norvegicus; assay: GnRH antagonistic dose of compound for 0 rats ovulation out of total 10 using anti-ovulatory assay in experiment 1; assay type: functional
Rattus norvegicus [14] = species: Rattus norvegicus; assay: GnRH antagonistic dose of compound for 9 rats ovulation out of total 10 using anti-ovulatory assay; assay type: functional
Rattus norvegicus [15] = species: Rattus norvegicus; assay: GnRH antagonistic dose of compound for 8 rats ovulation out of total 10 using anti-ovulatory assay; assay type: functional
Rattus norvegicus [16] = species: Rattus norvegicus; assay: GnRH antagonistic dose of compound for 10 rats ovulation out of total 10 using anti-ovulatory assay; assay type: functional

Structure (SMILES)	EC50 (Rattus norvegicus [2])	Relative potency [3]	Kd (Rattus norvegicus [4])	other results
CC(=O)N[C@H](Cc1ccc2ccccc2c1)C(=O)N[C@H](Cc1ccc(Cl)cc1)C(=O)N[C@H](Cc1cccnc1)C(=O)N[C@@H](CO)C(=O)N[C@@H](CCCN=C(N)N)C(=O)N[C@H](Cc1cn(C=O)c2ccccc12)C(=O)N[C@@H](CC(C)C)C(=O)N[C@@H](CCCN=C(N)N)C(=O)N1CCC[C@H]1C(=O)N[C@H](C)C(=O)O	3.4 µg/mL (≈ 2.29 µM)	0.95	0.48 nM	ED100 (Rattus norvegicus [1]): 0.5 µg/kg
CC(=O)N[C@H](Cc1ccc2ccccc2c1)C(=O)N[C@H](Cc1ccc(F)cc1)C(=O)N[C@H](Cc1c[nH]c2ccccc12)C(=O)N[C@@H](CO)C(=O)N[C@@H](Cc1ccc(O)cc1)C(=O)N[C@H](CCCN=C(N)N)C(=O)N[C@@H](CC(C)C)C(=O)N[C@@H](CCCN=C(N)N)C(=O)N1CCC[C@H]1C(=O)NCC(=O)O	0.17 µg/mL (≈ 0.118 µM)			
CC(=O)N[C@H](Cc1ccc2ccccc2c1)C(=O)N[C@H](Cc1ccc(Cl)cc1)C(=O)N[C@H](Cc1cccnc1)C(=O)N[C@@H](CO)C(=O)N[C@@H](CCCN=C(N)N)C(=O)N[C@H](Cc1ccc2ccccc2c1)C(=O)N[C@@H](CC(C)C)C(=O)N[C@@H](CCCN=C(N)N)C(=O)N1CCC[C@@H]1C(=O)N[C@H](C)C(=O)O	1.9 µg/mL (≈ 1.3 µM)	0.88	5 nM	ED100 (Rattus norvegicus [15]): 1 µg/kg
CC(=O)N[C@H](Cc1ccc2ccccc2c1)C(=O)N[C@H](Cc1ccc(Cl)cc1)C(=O)N[C@H](Cc1cccnc1)C(=O)N[C@@H](CO)C(=O)N[C@@H](CCCN=C(N)N)C(=O)N[C@H](Cc1cn(Cc2ccccc2)cn1)C(=O)N[C@@H](CC(C)C)C(=O)N[C@@H](CCCN=C(N)N)C(=O)N1CCC[C@H]1C(=O)N[C@H](C)C(N)=O	4.4 µg/mL (≈ 2.94 µM)			ED100 (Rattus norvegicus [15]): 0.5 µg/kg
COc1ccc(C(=O)CC[C@@H](NC(=O)[C@H](Cc2ccc(O)cc2)NC(=O)[C@H](CO)NC(=O)[C@@H](Cc2cccnc2)NC(=O)[C@@H](Cc2ccc(Cl)cc2)NC(=O)[C@H]2CCCN2C(C)=O)C(=O)N(C)[C@@H](CC(C)C)C(=O)N[C@@H](CCCN=C(N)N)C(=O)N2CCC[C@H]2C(=O)N[C@H](C)C(=O)O)cc1	30.3 µg/mL (≈ 21.5 µM)			ED100 (Rattus norvegicus [16]): 5 µg/kg

Further lines, with some results ahead:

EC50 (Rattus norvegicus [2])	Relative potency [3]	Structure (SMILES)	Kd (Rattus norvegicus [4])	other results
1.6 µg/mL (≈ 1.08 µM)	1.01	COc1ccc(C(=O)CC[C@@H](NC(=O)[C@H](CCCN=C(N)N)NC(=O)[C@H](CO)NC(=O)[C@@H](Cc2cccnc2)NC(=O)[C@@H](Cc2ccc(Cl)cc2)NC(=O)[C@@H](Cc2ccc3ccccc3c2)NC(C)=O)C(=O)N[C@@H](CC(C)C)C(=O)N[C@@H](CCCN=C(N)N)C(=O)N2CCC[C@H]2C(=O)N[C@H](C)C(=O)O)cc1	0.67 nM	LH level (Rattus norvegicus [5]): 3.68 ng/mL; LH level (Rattus norvegicus [6]): 3.27 ng/mL; LH level (Rattus norvegicus [7]): 5.06 ng/mL; LH level (Rattus norvegicus [8]): 13.38 ng/mL; LH level (Rattus norvegicus [9]): 2.94 ng/mL; ED100 (Rattus norvegicus [10]): 0.5 µg/kg; LH level (Rattus norvegicus [11]): 6.31 ng/mL; LH level (Rattus norvegicus [12]): 3.67 ng/mL; ED100 (Rattus norvegicus [13]): 1.5 µg/kg
	0.09	CC(=O)N[C@H](Cc1ccc2ccccc2c1)C(=O)N[C@H](Cc1ccc(Cl)cc1)C(=O)N[C@H](Cc1cccnc1)C(=O)N[C@@H](CO)C(=O)N[C@@H](CCCN=C(N)N)C(=O)N[C@H](CCC(=O)O)C(=O)N[C@@H](CC(C)C)C(=O)N[C@@H](CCCN=C(N)N)C(=O)N1CCC[C@@H]1C(=O)N[C@H](C)C(=O)O	0.16 nM	
17 µg/mL (≈ 12.2 µM)		CC(=O)N[C@H](Cc1ccc2ccccc2c1)C(=O)N[C@H](Cc1ccc(Cl)cc1)C(=O)N[C@H](Cc1cccnc1)C(=O)N[C@@H](CO)C(=O)N[C@@H](CCCN=C(N)N)C(=O)N[C@H](CCC(=O)O)C(=O)N[C@@H](CC(C)C)C(=O)N[C@@H](CCCN=C(N)N)C(=O)N1CCC[C@H]1C(=O)N[C@H](C)C(=O)O		ED100 (Rattus norvegicus [14]): 10 µg/kg
